Reference: patent publication US20250136618A1, “ANTIBIOTIC PYRAZINOTHIAZINE DERIVATIVES AND PROCESS OF PREPARATION THEREOF” (Bugworks Research India PVT Ltd, priority 2021, published 2025)
Values after ≈ are worked out from the molar mass of the structure shown.

How the values were obtained:
Assay type in all cases: cell-based
[1] = system: Klebsiella pneumoniae; assay: MIC90 determination, clinical strains (CLSI); details: for MIC90: Klebsiella pneumoniae, N=86, read-out: MIC 90 Klebsiella pneumoniae
[2] = system: CHO-K1 cells; assay: In-vitro micronucleus assay
Protocol: Genetic toxicology studies were performed on the compounds of the present disclosure to assess their ability to cause DNA damage. The in-vitro micronucleus assay measured the concentration (μM) of the compound at which micronuclei formation occurred. A micronuclei formation at lower concentration indicates more genetic damage or genotoxicity.
Micronucleus formation is a hallmark of genotoxicity, and the micronucleus assay is an important component of genotoxicity screening. Micronuclei are chromatin-containing bodies that represent fragments or even whole chromosomes that were not incorporated into a daughter cell nucleus at mitosis. The purpose of the assay is to detect agents that induce chromosome damage leading to the induction of micronuclei in interphase cells. The in vitro micronucleus assay was conducted in CHO-K1 cells according to the procedure described by Diaz, D et al [Mutat Res. 630(1-2):1-13. […] The formation of the micronucleus is identified by image-based high content analysis from binucleated cells.

[3] = system: Acinetobacter baumannii ATCC 19606; assay: Minimum Inhibitory Concentration (MIC) in LB media; details: for MIC: Acinetobacter baumannii, ATCC19606
Description: (§1) The compounds of Formula Ia and Formula Ib are of interest due to their potent antibacterial effects. The ability of the compounds disclosed herein to achieve an antibacterial effect may be evaluated with regard to their ability to inhibit the growth of bacterial species like Escherichia coli ATCC 25922, Staphylococcus aureus ATCC 29213, Klebsiella pneumoniae ATCC 13883, Acinetobacter baumannii ATCC 19606, Pseudomonas aeruginosa ATCC 27853 and Enterococcus faecalis ATCC 29212 using an assay based on the following Minimum Inhibitory Concentration (MIC) protocol:
(§2) The test bacteria were grown in Luria Bertani Broth (HIMEDIA M1245), 25 g of the powder was dissolved in 1000 ml distilled water and sterilized by autoclaving at 15 lbs pressure (121° C.) for 20 minutes. The medium sterility was checked by incubating at 37° C. for a period of 48 h. Bacterial cultures that were stored as glycerol stocks at −80° C. were subcultured on LB agar plates to obtain isolated colonies. A single colony of each strain was cultured in LB broth. The cultures were incubated at 37° C., 200 rpm till they reached an optical density (OD at 600 nm) of 0.8 to 1. This log phase culture was diluted in LB broth to a cell number of 5-8*10^5 CFU/mL to be used as inoculum for MIC experiments. Test compounds were dissolved in dimethyl sulfoxide (DMSO) to a stock concentration of 4 mg/ml. A two-fold dilution series of this DMSO stock was prepared in a 96 well V bottom microtitre plate from rows A to H. A 3 μL volume of these dilutions are transferred to a 96-well flat bottom microtitre assay plate. Controls to monitor the effects of DMSO and media sterility were included. Each well was inoculated with 150 μL of the above diluted culture. The plates were incubated at 37° C. overnight in a humidified incubator. The following morning, the plates were read using a Spectrophotometer at 600 nm wavelength. […] The antibacterial activity (MIC) determined against representative gram-positive (S. aureus, E. faecalis) and gram-negative (E. coli, Aeruginosa, K. pneumoniae, and A. baumannii) pathogen are reported Table 1.

[4] = system: Staphylococcus aureus ATCC 29213; assay: Minimum Inhibitory Concentration (MIC) in LB media; details: for MIC: Staphylococcus aureus, ATCC29213, read-out: Minimum Inhibitory Concentration S. aureus ATCC 29213
Description: as §1, §2

[5] = system: Escherichia coli ATCC 25922; assay: Minimum Inhibitory Concentration (MIC) in LB media; details: for MIC: Escherichia coli, ATCC25922, read-out: Minimum Inhibitory Concentration E. coli ATCC 25922
Description: as §1, §2

[6] = system: Pseudomonas aeruginosa ATCC 27853; assay: Minimum Inhibitory Concentration (MIC) in LB media; details: for MIC: Pseudomonas aeruginosa, ATCC27853
Description: as §1, §2

[7] = system: Enterococcus faecalis ATCC 29212; assay: Minimum Inhibitory Concentration (MIC) in LB media; details: for MIC: Enterococcus faecalis, ATCC29212, read-out: Minimum Inhibitory Concentration E. faecalis ATCC 29212
Description: as §1, §2

[8] = system: Klebsiella pneumoniae ATCC 13883; assay: Minimum Inhibitory Concentration (MIC) in LB media; details: for MIC: Klebsiella pneumoniae, ATCC13883, read-out: Minimum Inhibitory Concentration K. pneumoniae ATCC 13883
Description: as §1, §2

[9] = molecular target: hERG potassium channel (Homo sapiens (Human), UniProt Q12809); assay: hERG inhibition assay (Qpatch HTX automated electrophysiology); details: CHO cell line expressing hERG, whole-cell patch clamp
Sequence of hERG potassium channel (Q12809 whole entry): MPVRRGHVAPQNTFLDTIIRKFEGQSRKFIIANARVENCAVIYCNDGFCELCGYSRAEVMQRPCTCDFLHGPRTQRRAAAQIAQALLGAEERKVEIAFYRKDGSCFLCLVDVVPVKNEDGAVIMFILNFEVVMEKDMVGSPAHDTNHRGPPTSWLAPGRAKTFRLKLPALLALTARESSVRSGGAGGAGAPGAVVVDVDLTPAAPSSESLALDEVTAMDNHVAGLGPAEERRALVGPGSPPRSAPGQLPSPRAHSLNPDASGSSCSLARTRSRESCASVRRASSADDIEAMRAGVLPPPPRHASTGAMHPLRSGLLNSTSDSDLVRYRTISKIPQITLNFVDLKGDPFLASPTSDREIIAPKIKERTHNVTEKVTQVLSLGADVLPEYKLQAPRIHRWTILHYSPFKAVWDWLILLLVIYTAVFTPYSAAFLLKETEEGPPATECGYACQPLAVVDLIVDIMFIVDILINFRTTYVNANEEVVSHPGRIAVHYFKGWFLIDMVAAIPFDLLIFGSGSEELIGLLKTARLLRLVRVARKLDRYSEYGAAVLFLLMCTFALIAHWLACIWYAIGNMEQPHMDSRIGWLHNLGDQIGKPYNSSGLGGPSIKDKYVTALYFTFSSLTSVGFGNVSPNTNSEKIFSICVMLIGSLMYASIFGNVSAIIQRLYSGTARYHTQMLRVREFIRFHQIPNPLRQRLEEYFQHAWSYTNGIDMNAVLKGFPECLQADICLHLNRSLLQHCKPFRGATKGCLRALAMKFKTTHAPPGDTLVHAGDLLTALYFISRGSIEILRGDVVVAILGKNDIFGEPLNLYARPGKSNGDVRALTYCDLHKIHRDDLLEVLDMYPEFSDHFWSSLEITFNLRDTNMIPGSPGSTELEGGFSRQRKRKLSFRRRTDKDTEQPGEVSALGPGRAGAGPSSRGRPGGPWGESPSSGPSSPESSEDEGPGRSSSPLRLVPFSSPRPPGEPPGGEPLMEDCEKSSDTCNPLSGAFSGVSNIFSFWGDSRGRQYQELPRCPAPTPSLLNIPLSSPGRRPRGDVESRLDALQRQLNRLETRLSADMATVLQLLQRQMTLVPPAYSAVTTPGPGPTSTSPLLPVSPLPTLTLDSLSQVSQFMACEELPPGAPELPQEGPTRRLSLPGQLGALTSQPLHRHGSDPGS
Protocol: Electrophysiological recordings were made from a Chinese Hamster Ovary cell line stably expressing the full-length hERG potassium channel. Single cell ionic currents were measured in whole-cell patch clamp configuration at room temperature (21-23° C.) using the Qpatch HTX platform (Sophion). Intracellular solution contained (mM): 120 KF, 20 KCl, 10 EGTA, 10 HEPES and was buffered to pH 7.3. […] Cells were clamped at a holding potential of −80 mV. Cells were stepped to +20 mV for 2 s then −40 mV for 3 s before returning to the holding potential. […] Compounds were then incubated for 2 minutes prior to a second measurement of ion channel current using an identical pulse train.

[10] = system: Escherichia coli; assay: MIC90 determination, clinical strains (CLSI); details: for MIC90: Escherichia coli, N=38, read-out: MIC 90 Escherichia coli
[11] = system: Serratia marcescens; assay: MIC90 determination, clinical strains (CLSI); details: for MIC90: Serratia marcescens, N=15, read-out: MIC 90 Serratia marcescens
[12] = system: Klebsiella aerogenes, K. oxytoca; assay: MIC90 determination, clinical strains (CLSI); details: for MIC90: N=17, read-out: MIC 90 Klebsiella aerogenes, K. oxytoca
[13] = system: Citrobacter freundii; assay: MIC90 determination, clinical strains (CLSI); details: for MIC90: Citrobacter freundii, N=19, read-out: MIC 90 Citrobacter freundii
[14] = system: Enterobacter cloacae; assay: MIC90 determination, clinical strains (CLSI); details: for MIC90: Enterobacter cloacae, N=26, read-out: MIC 90 Enterobacter cloacae
[15] = system: Providencia rettgeri, P. stuartii; assay: MIC90 determination, clinical strains (CLSI); details: for MIC90: N=12, read-out: MIC 90 Providencia rettgeri, P. stuartii
[16] = system: Morganella morganii; assay: MIC90 determination, clinical strains (CLSI); details: for MIC90: Morganella morganii, N=11, read-out: MIC 90 Morganella morganii
[17] = system: Acinetobacter baumannii; assay: MIC90 determination, clinical strains (CLSI); details: for MIC90: Acinetobacter baumannii, N=38, read-out: MIC 90 Acinetobacter baumannii
[18] = system: Proteus mirabilis; assay: MIC90 determination, clinical strains (CLSI); details: for MIC90: Proteus mirabilis, N=12, read-out: MIC 90 Proteus mirabilis
[19] = system: Pseudomonas aeruginosa; assay: MIC90 determination, clinical strains (CLSI); details: for MIC90: Pseudomonas aeruginosa, N=34, read-out: MIC 90 Pseudomonas aeruginosa

Compound	MIC90 [1] [µg/mL]	% (in-vitro micronucleus assay) ([2]; Chinese hamster) [%]	In vitro micronucleus forming concentration ([2]; Chinese hamster) [µM]	MIC [3] [µg/mL]	MIC [4] [µg/mL]	MIC [5] [µg/mL]	MIC [6] [µg/mL]	MIC [7] [µg/mL]	MIC [8] [µg/mL]	IC50 [9] [µM]	MIC90 [10] [µg/mL]	MIC90 [11] [µg/mL]	MIC90 [12] [µg/mL]	MIC90 [13] [µg/mL]	MIC90 [14] [µg/mL]	MIC90 [15] [µg/mL]	MIC90 [16] [µg/mL]	MIC90 [17] [µg/mL]	MIC90 [18] [µg/mL]	MIC90 [19] [µg/mL]	also measured
Cn1c(=O)cnc2ccc(OCCNC[C@H]3CN(c4cnc5c(n4)NC(=O)CS5)C(=O)O3)nc21 [Compound 1, (S)-5-(((2-((4-Methyl-3-oxo-3,4-dihydropyrido[2,3-b]pyrazin-6-yl)oxy)ethyl)amino)methyl)-3-(3-oxo-3,4-dihydro-2H-pyrazino[2,3-b][1,4]thiazin-6-yl)oxazolidin-2-one, reference compound]	4 (≈ 8.26 µM)	1.58	32	0.03 (≈ 0.0619 µM)	< 0.03	0.03 (≈ 0.0619 µM)	0.5 (≈ 1.03 µM)	0.1 (≈ 0.206 µM)	0.03 (≈ 0.0619 µM)	58	0.5 (≈ 1.03 µM)	8 (≈ 16.5 µM)	2 (≈ 4.13 µM)	2 (≈ 4.13 µM)	4 (≈ 8.26 µM)	2 (≈ 4.13 µM)	1 (≈ 2.06 µM)	0.5 (≈ 1.03 µM)	4 (≈ 8.26 µM)	2 (≈ 4.13 µM)	–
Cn1c(=O)ccc2ncc(OCCNC[C@H]3CN(c4cnc5c(n4)NC(=O)CS5)C(=O)O3)nc21 [Compound 2, (S)-5-(((2-((5-Methyl-6-oxo-5,6-dihydropyrido[2,3-b]pyrazin-3-yl)oxy)ethyl)amino)methyl)-3-(3-oxo-3,4-dihydro-2H-pyrazino[2,3-b][1,4]thiazin-6-yl)oxazolidin-2-one, reference compound]	4 (≈ 8.26 µM)	1.67	8	0.03 (≈ 0.0619 µM)	< 0.03	0.03 (≈ 0.0619 µM)	0.5 (≈ 1.03 µM)	0.03 (≈ 0.0619 µM)	0.03 (≈ 0.0619 µM)	> 150	1 (≈ 2.06 µM)	16 (≈ 33 µM)	2 (≈ 4.13 µM)	1 (≈ 2.06 µM)	8 (≈ 16.5 µM)	4 (≈ 8.26 µM)	1 (≈ 2.06 µM)	2 (≈ 4.13 µM)	4 (≈ 8.26 µM)	4 (≈ 8.26 µM)	–
Cn1c(=O)cnc2ccc(OCCNC[C@@H]3CN(c4cnc5c(n4)NC(=O)CS5)C(=O)O3)nc21 [Compound 3, (R)-5-(((2-((4-methyl-3-oxo-3,4-dihydropyrido[2,3-b]pyrazin-6-yl)oxy)ethyl)amino)methyl)-3-(3-oxo-3,4-dihydro-2H-pyrazino[2,3-b][1,4]thiazin-6-yl)oxazolidin-2-one]	4 (≈ 8.26 µM)	0.81	>500	0.03 (≈ 0.0619 µM)	< 0.015	0.03 (≈ 0.0619 µM)	0.5 (≈ 1.03 µM)	0.03 (≈ 0.0619 µM)	0.03 (≈ 0.0619 µM)	–	0.5 (≈ 1.03 µM)	4 (≈ 8.26 µM)	4 (≈ 8.26 µM)	1 (≈ 2.06 µM)	8 (≈ 16.5 µM)	2 (≈ 4.13 µM)	1 (≈ 2.06 µM)	0.5 (≈ 1.03 µM)	4 (≈ 8.26 µM)	4 (≈ 8.26 µM)	genotoxicity risk (in words) [2]: completely devoid of any genotoxicity risk; micronucleus formation (in words) [2]: did not induce micronucleus formation
Cn1c(=O)ccc2ncc(OCCNC[C@@H]3CN(c4cnc5c(n4)NC(=O)CS5)C(=O)O3)nc21 [Compound 4, (R)-5-(((2-((5-methyl-6-oxo-5,6-dihydropyrido[2,3-b]pyrazin-3-yl)oxy)ethyl)amino)methyl)-3-(3-oxo-3,4-dihydro-2H-pyrazino[2,3-b][1,4]thiazin-6-yl)oxazolidin-2-one]	8 (≈ 16.5 µM)	0.76	–	0.03 (≈ 0.0619 µM)	0.015 (≈ 0.031 µM)	0.06 (≈ 0.124 µM)	0.5 (≈ 1.03 µM)	0.06 (≈ 0.124 µM)	0.06 (≈ 0.124 µM)	> 300	0.5 (≈ 1.03 µM)	16 (≈ 33 µM)	4 (≈ 8.26 µM)	2 (≈ 4.13 µM)	8 (≈ 16.5 µM)	2 (≈ 4.13 µM)	2 (≈ 4.13 µM)	1 (≈ 2.06 µM)	4 (≈ 8.26 µM)	4 (≈ 8.26 µM)	–
(S)-5-(((2-((4-Methyl-d3)-3-oxo-1,2,3,4-tetrahydropyrido[2,3-b]pyrazin-6-yl)oxy)ethyl)amino)methyl)-3-(3-oxo-3,4-dihydro-2H-pyrazino[2,3-b][1,4]thiazin-6-yl)oxazolidin-2-one [Compound 10]	–	–	–	–	–	–	–	–	–	157	–	–	–	–	–	–	–	–	–	–	MIC 90 Klebsiella pneumoniae ([1]; N=86): 8 µg/mL; genotoxicity risk (in words) [2]: completely devoid of any genotoxicity risk; % (in-vitro micronucleus assay) ([2]; CHO-K1 cells): 0.45%; In vitro micronucleus forming concentration ([2]; CHO-K1 cells): >1000 µM; Minimum Inhibitory Concentration A. baumannii ATCC 19606 [3]: 0.06 µg/mL; Minimum Inhibitory Concentration S. aureus ATCC 29213 [4]: <0.015 µg/mL; Minimum Inhibitory Concentration E. coli ATCC 25922 [5]: 0.06 µg/mL; Minimum Inhibitory Concentration Aeruginosa ATCC 27853 [6]: 1 µg/mL; Minimum Inhibitory Concentration E. faecalis ATCC 29212 [7]: 0.125 µg/mL; Minimum Inhibitory Concentration K. pneumoniae ATCC 13883 [8]: 0.06 µg/mL; MIC 90 Escherichia coli ([10]; N=38): 0.5 µg/mL; MIC 90 Serratia marcescens ([11]; N=15): 16 µg/mL; MIC 90 Klebsiella aerogenes, K. oxytoca ([12]; N=17): 2 µg/mL; MIC 90 Citrobacter freundii ([13]; N=19): 2 µg/mL; MIC 90 Enterobacter cloacae ([14]; N=26): 8 µg/mL; MIC 90 Providencia rettgeri, P. stuartii ([15]; N=12): 1 µg/mL; MIC 90 Morganella morganii ([16]; N=11): 1 µg/mL; MIC 90 Acinetobacter baumannii ([17]; N=38): 1 µg/mL; MIC 90 Proteus mirabilis ([18]; N=12): 4 µg/mL; MIC 90 Pseudomonas aeruginosa ([19]; N=34): 4 µg/mL
